Read-outs that look alike come from different tables or passages of the source.
Assays:
[1] = system: wild-type SARS-CoV-2 Spike Vpps; test: microbe, parasite or virus in culture; details: Severe acute respiratory syndrome coronavirus 2, NCI-H460, read-out: EC50 (inhibition of SARS-CoV-2 Vpp infection by 50%)
[2] = system: SARS-CoV-2 wild-type Spike Vpps; test: microbe, parasite or virus in culture; details: Severe acute respiratory syndrome coronavirus 2, Vero C1008, read-out: EC50 (inhibition of SARS-CoV-2 Vpp infection by 50%)
[3] = target: T1, human TMPRSS2 (Homo sapiens, UniProt O15393); test: Cell-based TMPRSS2 enzyme activity assay (293T-TMPRSS2 cells, Boc-QAR-AMC)
T1 construct: Flag; host or cells: 293T

[4] = Cytotoxicity assay (MTT), VeroE6; assay type: cell-based; details: African green monkey, tested concentrations given in μg/ml, read-out: CC50 (median cytotoxic concentration)
Experimental: (§1) The human embryonic kidney cells 293T stably expressing recombinant human ACE2 (293T-ACE2) were maintained in DMEM containing 10% FBS, 1% P/S, and […] hygromycin. The NCI-H460 cell line (human non-small cell lung cancer cells) was preserved in Modified Eagle’s Medium (MEM, Gibco, USA) supplemented with 10% FBS and 1% P/S. The VeroE6 cell line (African green monkey kidney cells) was grown in Dulbecco’s Modified Eagle’s Medium (DMEM, Gibco) supplemented with 10% fetal bovine serum (FBS, Gibco), 1× GlutaMAX (Gibco), and 1% penicillin/streptomycin (P/S, Hyclone, USA). All these cells were cultured at 37°C and 5% CO2. All cell lines are checked annually for mycoplasma contamination, and human cell lines were authenticated through STR profiling.
(§2) […]. The medium was removed, and viable cells were detected with MTT assay (Cyrusbioscience, Taiwan), which was read by absorbance at 570 nm by an ELISA reader. All experiments were performed independently in triplicates and repeated three times.

[5] = system: wild-type SARS-CoV-2 Spike Vpps; test: microbe, parasite or virus in culture; details: Severe acute respiratory syndrome coronavirus 2, 293T/ACE2, read-out: EC50 (inhibition of SARS-CoV-2 Vpp infection by 50%)
[6] = target: T2, SARS-CoV-2 Mpro (Severe acute respiratory syndrome coronavirus 2, UniProt P0DTD1); assay type: biochemical
T2 construct: the main protease (M^pro/3CL^pro), a chymotrypsin-like protease

[7] = Cytotoxicity assay (MTT), 293T-ACE2; assay type: cell-based; details: human, tested concentrations given in μg/ml, read-out: CC50 (median cytotoxic concentration)
Experimental: as §1, §2

[8] = system: SARS-CoV-2 wild-type Spike Vpps; set-up: EC50 (inhibition of SARS-CoV-2 Vpp infection by 50%): unit not given beside the values
[9] = system: SARS-CoV-2 wild-type Spike Vpps; test: microbe, parasite or virus in culture; details: Severe acute respiratory syndrome coronavirus 2, VeroE6/TMPRSS2, read-out: EC50 (inhibition of SARS-CoV-2 Vpp infection by 50%)
[10] = Cytotoxicity assay (MTT), NCI-H460; assay type: cell-based; details: human, tested concentrations given in μg/ml, read-out: CC50 (median cytotoxic concentration)
Experimental: as §1, §2

[11] = target: SARS-CoV-2 Spike RBD / human ACE2 interaction (UniProt P0DTC2+Q9BYF1); test: Spike protein–ACE2 interaction ELISA assay; assay type: binding, SARS-CoV-2; human; details: doses 0, 50, 100 μg/ml (method b11 says μM), Figure 1A
[12] = system: Mpro of SARS-CoV-2; details: in vitro analysis; ref Zhu and Xie, 2020; cited from earlier work

T1 sequence (O15393 whole entry): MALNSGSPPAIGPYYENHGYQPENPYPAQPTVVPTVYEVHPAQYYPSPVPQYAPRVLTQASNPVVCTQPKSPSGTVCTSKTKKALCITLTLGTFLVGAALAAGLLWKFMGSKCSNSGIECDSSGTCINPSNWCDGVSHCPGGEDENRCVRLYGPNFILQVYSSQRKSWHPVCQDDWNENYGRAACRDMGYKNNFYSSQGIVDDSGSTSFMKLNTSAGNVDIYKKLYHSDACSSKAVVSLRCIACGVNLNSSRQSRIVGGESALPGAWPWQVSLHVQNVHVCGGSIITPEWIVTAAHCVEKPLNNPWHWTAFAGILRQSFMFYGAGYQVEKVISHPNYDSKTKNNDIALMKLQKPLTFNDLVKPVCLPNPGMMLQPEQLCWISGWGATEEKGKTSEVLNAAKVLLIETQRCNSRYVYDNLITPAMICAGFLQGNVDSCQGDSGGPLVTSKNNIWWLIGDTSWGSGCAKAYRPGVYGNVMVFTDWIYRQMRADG

## O=C1O[C@H]2[C@@H]3OC(=O)c4cc(O)c(O)c(O)c4-c4c(O)c(O)c5oc(=O)c6c(c(O)c(O)c7oc(=O)c4c5c76)-c4c(cc(O)c(O)c4O)C(=O)OC[C@H]3OC(O)[C@@H]2OC(=O)c2cc(O)c(O)c(O)c2-c2c1cc(O)c(O)c2O (mixture of isomers) [Punicalagin, punicalagin]
[1]
  EC50: 4.65 ± 0.47 µg/mL
[2]
  EC50: 5.47 ± 1.27 µg/mL
[3]
  IC50: 31.9 µM
[3]; Figure 1C, in words
  inhibitory activity on TMPRSS2: only moderate inhibitory activity
[4]
  CC50 at 24 h: 84.7 ± 5.55 µg/mL
[5]
  EC50: 3.7 ± 2.24 µg/mL
[6]
  inhibition of Mpro enzymatic activity: even stronger inhibitory activity on M^pro than tannic acid and OPCs
[7]
  CC50 at 24 h: 606 ± 61.1 µg/mL
[8]
  SI (ratio of CC50 to EC50): 15.49
[9]
  EC50: 5.8 ± 1.74 µg/mL
[10]
  CC50 at 24 h: 88.4 ± 6.76 µg/mL
[11]
  inhibitory activity against the Spike protein–ACE2 interaction: highest inhibitory activity

## Oc1cc(O)c2c(c1)O[C@H](c1ccc(O)c(O)c1)[C@H](O)[C@H]2c1c(O)cc(O)c2c1O[C@H](c1ccc(O)c(O)c1)[C@H](O)C2 [PB2, procyanidin B2]
[12]
  IC50: 75.3 ± 1.29 µM

## tannic acid [reference compound]
[8]
  EC50 (inhibition of SARS-CoV-2 Vpp infection by 50%): 6.91±0.63
